Measurements taken from PubChem BioAssay (NCI).
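Compound exposure: 48 hours, 5 concentrations, 96-well plates. Definition used: TGI = concentration required for complete inhibition of growth.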

Assays:
Assay in all cases: growth of human tumour cells (NCI), 48 h
[1] = test system: 786-0 renal
[2] = test system: A549 NSCLC
[3] = test system: ACHN renal
[4] = test system: BT-549 breast
[5] = test system: CAKI-1 renal
[6] = test system: CCRF-CEM leukemia
[7] = test system: COLO 205 colon
[8] = test system: DU-145 prostate
[9] = test system: EKVX NSCLC
[10] = test system: HCC-2998 colon
[11] = test system: HCT-116 colon
[12] = test system: HCT-15 colon
[13] = test system: HL-60(TB) leukemia
[14] = test system: HOP-62 NSCLC
[15] = test system: HOP-92 NSCLC
[16] = test system: HS 578T breast
[17] = test system: HT29 colon
[18] = test system: IGROV1 ovarian
[19] = test system: K-562 leukemia
[20] = test system: KM12 colon
[21] = test system: LOX IMVI melanoma
[22] = test system: M14 melanoma
[23] = test system: MALME-3M melanoma
[24] = test system: MCF7 breast
[25] = test system: MDA-MB-231 breast
[26] = test system: MDA-MB-435
[27] = test system: MDA-N
[28] = test system: MOLT-4 leukemia
[29] = test system: NCI-H226 lung
[30] = test system: NCI-H23 lung
[31] = test system: NCI-H460 lung
[32] = test system: NCI-H522 lung
[33] = test system: NCI/ADR-RES ovarian
[34] = test system: OVCAR-3 ovarian
[35] = test system: OVCAR-4 ovarian
[36] = test system: OVCAR-5 ovarian
[37] = test system: OVCAR-8 ovarian
[38] = test system: RPMI-8226 leukemia
[39] = test system: RXF 393 renal
[40] = test system: SF-268 CNS
[41] = test system: SF-295 CNS
[42] = test system: SF-539 CNS
[43] = test system: SK-MEL-2 melanoma
[44] = test system: SK-MEL-28 melanoma
[45] = test system: SK-MEL-5 melanoma
[46] = test system: SN12C renal
[47] = test system: SNB-19 CNS
[48] = test system: SNB-75 CNS
[49] = test system: SR leukemia
[50] = test system: SW-620 colon
[51] = test system: T-47D breast
[52] = test system: TK-10 renal
[53] = test system: U251 CNS
[54] = test system: UACC-257 melanoma
[55] = test system: UO-31 renal
[56] = test system: A498 renal
[57] = test system: PC-3 prostate
[58] = test system: SK-OV-3 ovarian
[59] = test system: UACC-62 melanoma

CCOC(=O)CCC(NC(=O)c1ccc(Nc2cnc3cc(C(F)(F)F)ccc3n2)cc1)C(=O)OCC (configuration not stated)
TGI [1]: > 66.8 µM | TGI [2]: > 100 µM | TGI [3]: > 100 µM | TGI [4]: 49 µM | TGI [5]: 47 µM | TGI [6]: > 100 µM | TGI [7]: > 100 µM | TGI [8]: > 100 µM | TGI [9]: > 100 µM | TGI [10]: > 100 µM | TGI [11]: > 100 µM | TGI [12]: > 100 µM | TGI [13]: > 100 µM | TGI [14]: 34.7 µM | TGI [15]: 49.6 µM | TGI [16]: 47.7 µM | TGI [17]: > 100 µM | TGI [18]: > 100 µM | TGI [19]: > 100 µM | TGI [20]: > 100 µM | TGI [21]: > 100 µM | TGI [22]: > 100 µM | TGI [23]: > 100 µM | TGI [24]: > 31.6 µM | TGI [25]: > 100 µM | TGI [26]: > 100 µM | TGI [27]: > 100 µM | TGI [28]: > 100 µM | TGI [29]: > 100 µM | TGI [30]: > 100 µM | TGI [31]: > 100 µM | TGI [32]: > 100 µM | TGI [33]: > 100 µM | TGI [34]: > 100 µM | TGI [35]: > 100 µM | TGI [36]: > 100 µM | TGI [37]: > 100 µM | TGI [38]: > 100 µM | TGI [39]: 9.64 µM | TGI [40]: > 78.4 µM | TGI [41]: 26 µM | TGI [42]: > 100 µM | TGI [43]: > 100 µM | TGI [44]: > 100 µM | TGI [45]: > 100 µM | TGI [46]: > 100 µM | TGI [47]: > 47.8 µM | TGI [48]: 5.91 µM | TGI [49]: > 100 µM | TGI [50]: > 100 µM | TGI [51]: > 100 µM | TGI [52]: > 100 µM | TGI [53]: 15.3 µM | TGI [54]: > 100 µM | TGI [55]: > 100 µM

CSC1=C(C#N)C(=O)N(c2ccc(Cl)cc2)C(=O)C1C#N (configuration not stated)
TGI [1]: > 100 µM | TGI [56]: > 100 µM | TGI [2]: > 100 µM | TGI [3]: > 100 µM | TGI [4]: > 100 µM | TGI [5]: > 100 µM | TGI [6]: > 100 µM | TGI [7]: > 100 µM | TGI [8]: > 100 µM | TGI [9]: > 100 µM | TGI [10]: > 100 µM | TGI [11]: > 100 µM | TGI [12]: > 100 µM | TGI [13]: > 100 µM | TGI [14]: > 100 µM | TGI [15]: 76.9 µM | TGI [16]: > 100 µM | TGI [17]: > 100 µM | TGI [18]: > 100 µM | TGI [19]: > 100 µM | TGI [21]: > 100 µM | TGI [22]: > 100 µM | TGI [23]: > 100 µM | TGI [24]: > 100 µM | TGI [25]: > 100 µM | TGI [26]: > 100 µM | TGI [27]: > 100 µM | TGI [28]: > 100 µM | TGI [29]: > 100 µM | TGI [30]: > 100 µM | TGI [31]: > 100 µM | TGI [32]: > 100 µM | TGI [34]: > 100 µM | TGI [35]: > 100 µM | TGI [36]: > 100 µM | TGI [57]: > 100 µM | TGI [38]: > 100 µM | TGI [39]: > 100 µM | TGI [40]: > 100 µM | TGI [41]: > 100 µM | TGI [42]: > 100 µM | TGI [43]: > 100 µM | TGI [44]: > 100 µM | TGI [45]: > 100 µM | TGI [58]: > 100 µM | TGI [46]: > 100 µM | TGI [47]: > 100 µM | TGI [49]: > 100 µM | TGI [50]: > 100 µM | TGI [51]: > 100 µM | TGI [52]: > 100 µM | TGI [53]: > 100 µM | TGI [54]: > 100 µM | TGI [59]: > 100 µM | TGI [55]: > 100 µM

Cc1cc(S(=O)(=O)Nc2nc3ccccc3[nH]2)c(S)cc1Cl
TGI [1]: > 100 µM | TGI [56]: > 100 µM | TGI [2]: > 100 µM | TGI [3]: > 100 µM | TGI [4]: > 100 µM | TGI [5]: > 100 µM | TGI [6]: 80.6 µM | TGI [7]: > 100 µM | TGI [8]: > 100 µM | TGI [9]: 99.5 µM | TGI [10]: > 100 µM | TGI [11]: 76.5 µM | TGI [12]: > 100 µM | TGI [13]: > 100 µM | TGI [14]: > 100 µM | TGI [15]: > 100 µM | TGI [16]: > 100 µM | TGI [17]: > 100 µM | TGI [18]: > 100 µM | TGI [19]: > 100 µM | TGI [20]: > 100 µM | TGI [21]: 39.8 µM | TGI [22]: > 100 µM | TGI [24]: > 100 µM | TGI [25]: > 100 µM | TGI [26]: > 100 µM | TGI [27]: > 100 µM | TGI [28]: > 100 µM | TGI [30]: > 100 µM | TGI [31]: > 100 µM | TGI [32]: > 100 µM | TGI [33]: > 100 µM | TGI [34]: > 100 µM | TGI [35]: > 100 µM | TGI [36]: > 100 µM | TGI [37]: > 100 µM | TGI [57]: > 100 µM | TGI [38]: > 100 µM | TGI [39]: > 100 µM | TGI [40]: > 100 µM | TGI [41]: > 100 µM | TGI [42]: > 100 µM | TGI [43]: > 100 µM | TGI [44]: 73.5 µM | TGI [45]: > 100 µM | TGI [58]: > 100 µM | TGI [46]: > 100 µM | TGI [47]: > 100 µM | TGI [48]: > 100 µM | TGI [49]: > 100 µM | TGI [50]: > 100 µM | TGI [51]: > 100 µM | TGI [52]: > 100 µM | TGI [53]: 78.3 µM | TGI [54]: > 100 µM | TGI [59]: > 100 µM | TGI [55]: > 100 µM
